From article PMC11869342, “Design and synthesis of novel HDAC6 inhibitor dimer as HDAC6 degrader for cancer treatment by palladium catalysed dimerisation” (Journal of Enzyme Inhibition and Medicinal Chemistry, 2025)
“Also recorded” adds a separate entry of the source. Where two headings read alike, the source gives them in different places.

Assays:
[1] = target: T1, HDAC1 (Homo sapiens, UniProt Q13547); assay: HDAC enzyme activity assay (Reaction Biology), HDAC1; assay type: biochemical
T1 construct: purchased Reaction Biology Corporation (Malvern, PA)

[2] = target: T2, HDAC6 (Homo sapiens, UniProt Q9UBN7); assay: HDAC enzyme activity assay (Reaction Biology), HDAC6; assay type: biochemical; parameters: Full-length recombinant hHDAC 6 was expressed in a baculovirus expression system in SF9 cells; purchased Reaction Biology Corporation (Malvern, PA); host or cells: baculovirus / SF9 insect cells; settings: for HDAC1/6 Selectivity: ratio of HDAC1 IC50 to HDAC6 IC50; for IC50: full-length recombinant hHDAC 6, RHKKAc substrate 50 μM, 2 h at 30 °C
T2 sequence (Q9UBN7 1-1215): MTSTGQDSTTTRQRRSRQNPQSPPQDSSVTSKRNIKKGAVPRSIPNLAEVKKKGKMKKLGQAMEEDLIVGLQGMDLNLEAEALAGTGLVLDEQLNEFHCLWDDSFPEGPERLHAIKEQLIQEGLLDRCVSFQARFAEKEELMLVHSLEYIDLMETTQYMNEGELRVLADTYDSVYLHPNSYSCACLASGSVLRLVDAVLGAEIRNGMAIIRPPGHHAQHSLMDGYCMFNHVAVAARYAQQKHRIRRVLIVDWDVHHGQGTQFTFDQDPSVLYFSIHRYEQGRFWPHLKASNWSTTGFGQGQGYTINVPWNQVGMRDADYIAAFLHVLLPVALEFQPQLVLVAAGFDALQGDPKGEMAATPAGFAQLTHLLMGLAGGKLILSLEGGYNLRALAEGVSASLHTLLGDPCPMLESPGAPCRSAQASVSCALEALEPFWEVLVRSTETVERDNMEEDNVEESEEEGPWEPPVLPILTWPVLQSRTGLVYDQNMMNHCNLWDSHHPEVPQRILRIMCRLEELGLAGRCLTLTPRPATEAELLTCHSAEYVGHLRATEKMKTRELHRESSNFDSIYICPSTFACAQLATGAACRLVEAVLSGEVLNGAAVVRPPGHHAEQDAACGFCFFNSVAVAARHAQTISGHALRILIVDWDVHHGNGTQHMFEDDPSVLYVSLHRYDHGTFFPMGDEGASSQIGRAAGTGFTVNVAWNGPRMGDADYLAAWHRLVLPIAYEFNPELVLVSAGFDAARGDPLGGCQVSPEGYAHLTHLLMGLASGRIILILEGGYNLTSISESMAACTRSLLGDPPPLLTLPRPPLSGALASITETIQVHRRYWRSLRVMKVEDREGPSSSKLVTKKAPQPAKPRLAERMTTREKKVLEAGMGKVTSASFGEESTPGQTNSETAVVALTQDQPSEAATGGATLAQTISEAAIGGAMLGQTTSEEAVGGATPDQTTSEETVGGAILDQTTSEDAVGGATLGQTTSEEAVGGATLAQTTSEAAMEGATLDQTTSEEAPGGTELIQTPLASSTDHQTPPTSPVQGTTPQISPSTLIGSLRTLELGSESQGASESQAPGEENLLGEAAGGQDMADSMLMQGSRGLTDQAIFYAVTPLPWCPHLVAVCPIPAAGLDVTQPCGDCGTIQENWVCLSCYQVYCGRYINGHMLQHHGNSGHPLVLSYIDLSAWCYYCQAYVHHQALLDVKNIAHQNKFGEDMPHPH
Procedure: HDAC inhibition assays were performed by Reaction Biology Corporation (Malvern, PA). Full-length recombinant hHDAC 6 was expressed in a baculovirus expression system in SF9 cells. […] The reaction was stopped after 2 h at 30 °C . Trichostatin A was used as an internal control.

[3] = test system: PC-3 cells; assay: Sulforhodamine B (SRB) assay, PC-3; assay type: cell-based; settings: Homo sapiens, read-out: GI50 con. ± SEM PC-3
Procedure: (§1) The A549 and PC-3 human lung and prostate cancer cell lines were acquired from the American Type Culture Collection (Rockville, MD). […] The cultures were kept in a 37 °C incubator with 5% CO2. When the adherent cultures reached 80% confluence, they were passaged using 0.05% trypsin-EDTA. PC-3 and A549 cells were seeded into 96-well plates in RPMI medium with 5% (v/v) foetal bovine serum for 24 h. Cells in partial wells were fixed with 10% trichloroacetic acid (TCA) to represent the initial time of compound treatment. The cells were treated with or without the indicated compound for 48 h and then were fixed with 10% TCA. After the washout with ddH2O and air-dried, SRB at 0.4% (w/v) in 1% acetic acid was added for staining. Unbound SRB was washed with 1% acetic acid and SRB-bounded cells were solubilised with 10 mM Tris base. The absorbance was read at a wavelength of 515 nm for the determination of cell growth.

[4] = test system: A549 cells; assay: Sulforhodamine B (SRB) assay, A549; assay type: cell-based; settings: Homo sapiens, read-out: GI50 con. ± SEM A549
Procedure: as §1

[5] = target: T2, HDAC6; assay: Western blotting of HDAC6 protein (degradation) in PC-3 cells; assay type: cell-based; parameters: endogenous in cells; host or cells: PC-3 (ATCC); settings: 30 μM, 24 h
Procedure: (§2) Figure 3. Western blotting analysis of (a) HDAC6 protein in PC-3 cells treated with various dimer compounds at 30 μM for 24 h, (b) Ac-α-tubulin protein in PC-3 cells treated with various dimer compounds at 30 μM for 24 h, (c) LC-3 I, LC-3 II, and p62 proteins in PC-3 cells treated with various dimer compounds at 30 μM for 24 h, (d) PARP-1 and Caspase-3 proteins in PC-3 cells treated with various dimer compounds at 30 μM for 24 h, (e) p-BUBR1^S670 and p-BUBR1^T680 proteins in PC-3 cells treated with various dimer compounds at 30 μM for 24 h. Glyceraldehyde 3-phosphate dehydrogenase (GAPDH) was used as the loading control.
(§3) After compound treatment, the cells were harvested and centrifuged. […] The supernatants quantified by Bio-Rad protein assay kit (Bio-Rad Laboratories, Hercules, CA) were mixed with sample buffer (0.3 M Tris pH6.8, 10% SDS, 50% glycerol, 10% β-mercaptoethanol, and 0.02% bromophenol blue) and heated at 95 °C for 10 min. The protein (30 µg) was separated by electrophoresis in 8% or 12% SDS-PAGE, transferred to PVDF membranes, and detected with specific antibodies (1:1000 dilution for the first and 1:7000 for the second antibodies). The immunoreactive proteins were detected with an enhanced chemiluminescence detection kit (Amersham, Buckinghamshire, UK) and the images were captured by ChemiDoc™ MP System (Bio-Rad Laboratories, Hercules, CA).

[6] = test system: PARP-1 and Caspase-3; assay: Western blotting of apoptosis biomarkers PARP-1 and Caspase-3 in PC-3 cells; assay type: cell-based, human; settings: 30 μM, 24 h
Procedure: as §2, §3

[7] = test system: LC-3 II and p62; assay: Western blotting of autophagy proteins LC-3 II and p62 in PC-3 cells; assay type: cell-based, human; settings: 30 μM, 24 h
Procedure: as §2, §3

T1 sequence (Q13547 whole entry): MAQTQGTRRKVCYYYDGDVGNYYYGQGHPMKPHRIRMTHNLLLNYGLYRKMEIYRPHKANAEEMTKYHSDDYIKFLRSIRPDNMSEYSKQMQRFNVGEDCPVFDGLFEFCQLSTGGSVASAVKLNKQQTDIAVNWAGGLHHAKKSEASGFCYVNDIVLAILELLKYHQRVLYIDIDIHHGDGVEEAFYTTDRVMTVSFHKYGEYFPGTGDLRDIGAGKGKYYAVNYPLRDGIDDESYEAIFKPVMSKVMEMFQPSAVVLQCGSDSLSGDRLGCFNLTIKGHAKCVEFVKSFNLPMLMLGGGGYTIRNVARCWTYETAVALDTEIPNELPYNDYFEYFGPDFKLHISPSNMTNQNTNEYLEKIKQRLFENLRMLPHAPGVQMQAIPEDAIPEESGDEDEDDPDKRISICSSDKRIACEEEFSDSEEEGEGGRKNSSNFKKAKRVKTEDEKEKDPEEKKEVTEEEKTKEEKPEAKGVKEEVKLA

Structure (SMILES)	IC50 [1] [µM]	HDAC1/6 Selectivity [2]	GI50 ([3]; PC-3, 48 h) [µM]	GI50 ([4]; A549, 48 h) [µM]	IC50 [2] [µM]	GI50 ([3]; PC-3 cells, SRB, 48 h) [µM]	GI50 ([4]; A549 cells, SRB, 48 h) [µM]	HDAC6 degradation (Western blot) [5]	apoptosis induction (PARP-1 cleavage, Caspase-3 activation) [6]	autophagy induction (LC-3 II level, p62 expression) [7]
O=C(NO)c1ccc(Cn2c(=O)n(CCc3ccccc3)c(=O)c3ccccc32)cc1 [Compound 1]	11.2	2790	3.5	8.8	–	–	–	–	–	–
O=C(NO)c1ccc(Cn2c(=O)n(CCc3ccccc3)c(=O)c3cc(NCCOCCOCCOCCNc4ccc5c(c4)c(=O)n(CCc4ccccc4)c(=O)n5Cc4ccc(C(=O)NO)cc4)ccc32)cc1 [Compound 4a, 4-{[6-(2-{2-[2-(2-{1-[(4-Hydroxamophenyl)methyl]-2,4-dioxo-3-phenethylquinazolin-6-ylamino}ethoxy)ethoxy]ethoxy}ethylamino)-2,4-dioxo-3-phenethylquinazolin-1-yl]methyl}benzohydroxamic acid]	–	–	–	–	0.092	> 30	> 30	–	–	–
O=C(NO)c1ccc(Cn2c(=O)n(CCc3ccccc3)c(=O)c3cc(NCCOCCOCCNc4ccc5c(c4)c(=O)n(CCc4ccccc4)c(=O)n5Cc4ccc(C(=O)NO)cc4)ccc32)cc1 [Compound 4b, 4-[(6-{2-[2-(2-{1-[(4-Hydroxamophenyl)methyl]-2,4-dioxo-3-phenethylquinazolin-6-ylamino}ethoxy)ethoxy]ethylamino}-2,4-dioxo-3-phenethylquinazolin-1-yl)methyl]benzohydroxamic acid]	> 10	>12	–	–	0.816	> 30	> 30	–	–	–
O=C(NO)c1ccc(Cn2c(=O)n(CCc3ccccc3)c(=O)c3cc(NCCCCCNc4ccc5c(c4)c(=O)n(CCc4ccccc4)c(=O)n5Cc4ccc(C(=O)NO)cc4)ccc32)cc1 [Compound 4c, 4-{[6-(5-{1-[(4-Hydroxamophenyl)methyl]-2,4-dioxo-3-phenethylquinazolin-6-ylamino}pentylamino)-2,4-dioxo-3-phenethylquinazolin-1-yl]methyl}benzohydroxamic acid]	–	–	–	–	0.096	21.4 ± 0.3	> 30	–	–	–

Continued by falling IC50 [2], values first:

IC50 [1] [µM]	HDAC1/6 Selectivity [2]	GI50 ([3]; PC-3, 48 h) [µM]	GI50 ([4]; A549, 48 h) [µM]	IC50 [2] [µM]	GI50 ([3]; PC-3 cells, SRB, 48 h) [µM]	GI50 ([4]; A549 cells, SRB, 48 h) [µM]	Structure (SMILES)	HDAC6 degradation (Western blot) [5]	apoptosis induction (PARP-1 cleavage, Caspase-3 activation) [6]	autophagy induction (LC-3 II level, p62 expression) [7]
9.57	283	–	–	0.033	5.5 ± 0.7	9.1 ± 1.8	O=C(NO)c1ccc(Cn2c(=O)n(CCc3ccc(NCCOCCOCCNc4ccc(CCn5c(=O)c6ccccc6n(Cc6ccc(C(=O)NO)cc6)c5=O)cc4)cc3)c(=O)c3ccccc32)cc1 [Compound 6b, 4-{[3-(2-{4-[2–(2-{2-[4-(2-{1-[(4-Hydroxamophenyl)methyl]-2,4-dioxoquinazolin-3-yl}ethyl)phenylamino]ethoxy}ethoxy)ethylamino]phenyl}ethyl)-2,4-dioxoquinazolin-1-yl]methyl}benzohydroxamic acid]	did not degrade HDAC6	did not induce apoptosis	signs of inducing autophagy
–	–	–	–	0.027	> 30	> 30	O=C(NO)c1ccc(Cn2c(=O)n(CCCCCn3c(=O)c4ccccc4n(Cc4ccc(C(=O)NO)cc4)c3=O)c(=O)c3ccccc32)cc1 [Compound 8c, 4-{[3-(5-{1-[(4-Hydroxamophenyl)methyl]-2,4-dioxoquinazolin-3-yl}pentyl)-2,4-dioxoquinazolin-1-yl]methyl}benzohydroxamic acid]	–	–	–
1.46	95	–	–	0.015	8.2 ± 0.1	6.6 ± 0.1	O=C(NO)c1ccc(CNc2ccccc2C(=O)NCCCCCNC(=O)c2ccccc2NCc2ccc(C(=O)NO)cc2)cc1 [Compound 11c]	–	–	–
3.33	273	–	–	0.012	14.7 ± 1.3	> 30	O=C(NO)c1ccc(Cn2c(=O)n(CCOCCOCCOCCn3c(=O)c4ccccc4n(Cc4ccc(C(=O)NO)cc4)c3=O)c(=O)c3ccccc32)cc1 [Compound 8a, 4-{[3-(11-{1-[(4-Hydroxamophenyl)methyl]-2,4-dioxoquinazolin-3-yl}-3,6,9-trioxaundecyl)-2,4-dioxoquinazolin-1-yl]methyl}benzohydroxamic acid]	degradation of HDAC6 was observed; also recorded: induced HDAC6 auto-degradation	induce apoptosis	strong autophagy induction
2.6	577	–	–	0.004	5.9 ± 0.7	17.3 ± 0.2	O=C(NO)c1ccc(CNc2ccccc2C(=O)NCCOCCOCCOCCNC(=O)c2ccccc2NCc2ccc(C(=O)NO)cc2)cc1 [Compound 11a]	–	–	–
1.27	326	–	–	0.003	11.3 ± 0.2	17.9 ± 0.4	O=C(NO)c1ccc(CNc2ccccc2C(=O)NCCOCCOCCNC(=O)c2ccccc2NCc2ccc(C(=O)NO)cc2)cc1 [Compound 11b]	–	–	–
3.19	1386	–	–	0.002	> 30	> 30	O=C(NO)c1ccc(Cn2c(=O)n(CCOCCOCCn3c(=O)c4ccccc4n(Cc4ccc(C(=O)NO)cc4)c3=O)c(=O)c3ccccc32)cc1 [Compound 8b, 4-[(3-{2-[2-(2-{1-[(4-Hydroxamophenyl)methyl]-2,4-dioxoquinazolin-3-yl}ethoxy)ethoxy]ethyl}-2,4-dioxoquinazolin-1-yl)methyl]benzohydroxamic acid]	–	–	–
